Assay results as given in patent US20150265630A1, “6-Substituted Estradiol Derivatives for the Treatment of Alzheimer's Disease” (Endece LLC, priority 2014, published 2015).

Key:
Assay type in all cases: cell-based
[1] = tested on: Lipoprotein Lipase mRNA (LPL); assay: Expression profiling (Agilent whole human genome microarray), LPL mRNA in human tumor cell lines; details: for Gene expression value, Lipoprotein Lipase mRNA (LPL), treated vs untreated: 50 μM, 24 hours
Protocol: (§1) The study includes three human tumor cell lines: A549, Panc-1, and SK-OV-3. The lines are each grown in two flasks cultured to roughly 40% confluence. One of the flasks is treated by addition of compound to the culture media at a various concentrations, i.e. 10 μM, 20 μM 50 μM, or 100 μM. The other, mock treated, flask is treated only with the vehicle used to solubilize and deliver the drug. RNA extracted from the pairs of treated and untreated samples is subjected to microarray analysis on Agilent Whole Human Genome Microarrays (G4112F). Each analysis reports the difference in abundance of messenger RNAs for each of the 41,000 specific mRNA detectors on the array. This direct comparison of the treated versus untreated samples for each cell line provides extremely sensitive detection of changes in mRNA abundance resulting from the drug treatment. As each cell line comparison is self-normalized, the results can be compared across the samples with high confidence.
(§2) Three human tumor cell lines, A549, Panc-1, and SK-OV-3, are each grown in two flasks cultured to roughly 40% confluence. One of the flasks is treated by addition of compound to the culture media at concentrations of 10 μM, 50 μM and 100 μM. The other, mock treated, flask is treated only with the vehicle used to solubilize and deliver the drug. All flasks are cultured for a further 24 hours, and then the cells are scraped free and washed in ice-cold PBS, then collected by centrifugation. The harvested cells are immediately frozen, and stored at −80° C. or colder.
(§3) Total RNA is prepared from the frozen tissue samples using Trizol-based cell lysis followed by 65° C. hot phenol extraction and RNeasy chromatography purification. The purified RNA samples are analyzed spectrophotometrically. The concentration of RNA is determined by measuring the absorbance at 260 nm (A260). Given an absorbance of 1 unit at 260 nm corresponds to […] of RNA per ml when measured at pH 11.
(§4) All RNAs are labeled using 1 microgram of RNA as input to an Agilent Low Input Labeling reaction.
(§5) Test RNA is labeled with Cy5 (650 nm emitter) and reference RNA is labeled with Cy3 (550 nm emitter) nucleotides. Labeling, hybridizations and subsequent washings are carried out on Agilent H1Av2 human expression chips. The resulting hybridized chips are scanned on an Agilent microarray scanner, and intensity information for each detector spot is extracted from the scanned image using Agilent feature extraction software. […]
(§6) After the ratios have been calculated for the normalized data, the various control and duplicate samples are analyzed to build a model of how reproducible the results are, and how this reproducibility is varies depending on signal strength and noise. […]

[2] = tested on: Apolipoprotein C2 (ApoC2); assay: Expression profiling (Agilent whole human genome microarray), ApoC2 mRNA in human tumor cell lines; details: for Gene expression value, Apolipoprotein C2 (ApoC2), treated vs untreated: 50 μM, 24 hours
Protocol: as §1, §2, §3, §4, §5, §6

[3] = tested on: Apolipoprotein C3 (ApoC3); assay: Expression profiling (Agilent whole human genome microarray), ApoC3 mRNA in human tumor cell lines; details: for Gene expression value, Apolipoprotein C3 (ApoC3), treated vs untreated: 50 μM, 24 hours
Protocol: as §1, §2, §3, §4, §5, §6

[4] = human tumor cell lines SKOV-3, A549 and Panc-1, summary of Table 1

COCCCCCC[C@@H]1C[C@@H]2[C@H](CC[C@]3(C)C(O)CC[C@@H]23)c2ccc(O)cc21 (stereo partly drawn) [Compound 21, (6R,8R,9S,13S,14S)-6-(6-methoxyhexyl)-13-methyl-7,8,9,11,12,13,14,15,16,17-decahydro-6H-cyclopenta[a]phenanthrene-3,17-diol]
Gene expression value, Lipoprotein Lipase mRNA (LPL), treated vs untreated ([1]; A549 cells, p = 0.0018): 2.95 log2
Gene expression value, Lipoprotein Lipase mRNA (LPL), treated vs untreated ([1]; Panc-1 cells): 3.90 log2
Gene expression value, Lipoprotein Lipase mRNA (LPL), treated vs untreated ([1]; SKOV-3 cells, p = 0.008): 2.77 log2
Regulation of the LPL gene (in words) [1, 4]: up-regulate
Gene expression value, Apolipoprotein C2 (ApoC2), treated vs untreated ([2]; A549 cells): 7.21 log2
Gene expression value, Apolipoprotein C2 (ApoC2), treated vs untreated ([2]; Panc-1 cells): 6.91 log2
Gene expression value, Apolipoprotein C2 (ApoC2), treated vs untreated ([2]; SKOV-3 cells): 3.89 log2
Regulation of the ApoC2 gene (in words) [2, 4]: up-regulate
Gene expression value, Apolipoprotein C3 (ApoC3), treated vs untreated ([3]; A549 cells): 0 log2
Gene expression value, Apolipoprotein C3 (ApoC3), treated vs untreated ([3]; Panc-1 cells): 0 log2
Gene expression value, Apolipoprotein C3 (ApoC3), treated vs untreated ([3]; SKOV-3 cells): 0 log2
Regulation of the ApoC3 gene (in words) [3, 4]: but not the ApoC3 gene
